Test system: MCF7; call rule not given here
Assay: Cytotoxicity against human MCF7 cells after 15 days by clonogenic assay
Type: functional, cell-based

| SMILES | IC50 (mcf7) | IC50 (Homo sapiens, MCF7, 360 h, read-out: IC50) |
| --- | --- | --- |
| C=C1/C=C/[C@H](OC)[C@@H](C)CC(=O)c2c(C)coc2C1 (relative stereo) | Not Active |  |
| C=C1Cc2occ(C)c2C(=O)C[C@H](C)C[C@@H]2O[C@@H]12 (relative stereo) |  | 40 µM |
| CO[C@H]1/C=C(\C)Cc2occ(C)c2C(=O)C[C@H](C)C1 (relative stereo) | Not Active |  |
| CO[C@H]1/C=C(/C)Cc2occ(C)c2C(=O)[C@@H](OC(C)=O)[C@H](C)C1 (relative stereo) | Not Active |  |

From ChEMBL document CHEMBL1156379, “Furanosesquiterpenoids of Commiphora myrrha” (J Nat Prod, 2001)
